Assay in all cases: Kinase panel profiling at 1 µmol/L (MSA or IMAP), percentage inhibition
Holding throughout (assay type): biochemical

Test [1] concerns the target panel of 255 wild-type kinases (Homo sapiens, UniProt O75582). The conditions noted are these: MSK1; 1 µmol/L single concentration; read-out: %-inhibition, MSK1.
Test [2] concerns the target panel of 255 wild-type kinases (Homo sapiens, UniProt O94804). Conditions: kinase LOK; 1 µmol/L single concentration; read-out: %-inhibition at 1 µmol/L, LOK.
For test [3], the target named is panel of 255 wild-type kinases (Homo sapiens, UniProt P12931). Conditions: kinase SRC; 1 µmol/L single concentration; read-out: %-inhibition at 1 µmol/L, SRC.
Test [4] deals with panel of 255 wild-type kinases (Homo sapiens, UniProt P16234). The conditions noted are these: kinase PDGFRα; 1 µmol/L single concentration; read-out: %-inhibition at 1 µmol/L, PDGFRα.
For test [5], the target named is panel of 255 wild-type kinases (Homo sapiens, UniProt P16591). Conditions: kinase FER; 1 µmol/L single concentration; read-out: %-inhibition at 1 µmol/L, FER.
For test [6], the target named is panel of 255 wild-type kinases (Homo sapiens, UniProt P24723). Conditions: kinase PKCη; 1 µmol/L single concentration; read-out: %-inhibition at 1 µmol/L, PKCη.
The target of test [7] is panel of 255 wild-type kinases (Homo sapiens, UniProt P27361). Conditions: kinase Erk1; 1 µmol/L single concentration; read-out: %-inhibition at 1 µmol/L, Erk1.
Test [8] concerns the target panel of 255 wild-type kinases (Homo sapiens, UniProt P27448). Conditions: MARK3; 1 µmol/L single concentration; read-out: %-inhibition, MARK3.
Test [9] deals with panel of 255 wild-type kinases (Homo sapiens, UniProt P28482). The conditions noted are these: kinase Erk2; 1 µmol/L single concentration; read-out: %-inhibition at 1 µmol/L, Erk2.
In test [10] the target is panel of 255 wild-type kinases (Homo sapiens, UniProt P49760). The conditions noted are these: kinase CLK2; 1 µmol/L single concentration; read-out: %-inhibition at 1 µmol/L, CLK2.
Test [11] deals with panel of 255 wild-type kinases (Homo sapiens, UniProt P53355). Conditions: kinase DAPK1; 1 µmol/L single concentration; read-out: %-inhibition at 1 µmol/L, DAPK1.
The target in test [12] is T1, panel of 255 wild-type kinases (Homo sapiens, UniProt Q08881).
T1 sequence (Q08881 1-620): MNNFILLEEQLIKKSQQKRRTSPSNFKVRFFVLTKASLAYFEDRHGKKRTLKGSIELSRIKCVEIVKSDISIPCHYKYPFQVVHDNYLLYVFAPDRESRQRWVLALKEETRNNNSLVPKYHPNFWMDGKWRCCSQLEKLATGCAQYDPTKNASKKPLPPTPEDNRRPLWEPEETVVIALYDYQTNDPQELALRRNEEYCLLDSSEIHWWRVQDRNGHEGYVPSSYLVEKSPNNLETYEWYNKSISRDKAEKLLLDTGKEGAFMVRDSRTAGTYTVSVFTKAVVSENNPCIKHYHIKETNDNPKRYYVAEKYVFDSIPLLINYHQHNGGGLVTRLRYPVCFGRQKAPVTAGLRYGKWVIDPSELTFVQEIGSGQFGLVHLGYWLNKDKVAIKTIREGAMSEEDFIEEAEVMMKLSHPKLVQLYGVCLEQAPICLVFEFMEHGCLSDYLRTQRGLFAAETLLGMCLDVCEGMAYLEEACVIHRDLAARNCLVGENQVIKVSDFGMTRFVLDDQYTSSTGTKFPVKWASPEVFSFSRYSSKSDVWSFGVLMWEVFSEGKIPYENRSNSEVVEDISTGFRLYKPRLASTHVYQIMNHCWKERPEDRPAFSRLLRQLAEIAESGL
Conditions: kinase ITK; 1 µmol/L single concentration; read-out: %-inhibition at 1 µmol/L, ITK.

Test [13] concerns the target panel of 255 wild-type kinases (Homo sapiens, UniProt Q13153). Conditions: PAK1; 1 µmol/L single concentration; read-out: %-inhibition, PAK1.
The target of test [14] is panel of 255 wild-type kinases (Homo sapiens, UniProt Q15759). Conditions: p38β; 1 µmol/L single concentration; read-out: %-inhibition, p38β.
Test [15] concerns the target panel of 255 wild-type kinases (Homo sapiens, UniProt Q96RG2). Conditions: PASK; 1 µmol/L single concentration; read-out: %-inhibition, PASK.
The target in test [16] is T2, panel of 255 wild-type kinases (Homo sapiens, UniProt Q9BXA7).
T2 sequence (Q9BXA7 1-367): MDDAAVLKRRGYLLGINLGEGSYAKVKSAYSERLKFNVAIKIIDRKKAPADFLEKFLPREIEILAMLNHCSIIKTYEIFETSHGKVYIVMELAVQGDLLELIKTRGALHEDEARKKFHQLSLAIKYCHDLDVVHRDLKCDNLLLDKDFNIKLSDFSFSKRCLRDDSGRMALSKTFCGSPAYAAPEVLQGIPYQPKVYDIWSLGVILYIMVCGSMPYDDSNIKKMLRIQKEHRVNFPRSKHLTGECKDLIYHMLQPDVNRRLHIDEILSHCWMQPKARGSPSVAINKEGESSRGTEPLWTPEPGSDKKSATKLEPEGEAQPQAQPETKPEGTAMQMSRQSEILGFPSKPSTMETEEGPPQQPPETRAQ
Conditions: kinase TSSK1; 1 µmol/L single concentration; read-out: %-inhibition at 1 µmol/L, TSSK1.

The target in test [17] is panel of 255 wild-type kinases (Homo sapiens, UniProt Q9HC98). Conditions: NEK6; 1 µmol/L single concentration; read-out: %-inhibition, NEK6.
Test [18] has as its target panel of 255 wild-type kinases (Homo sapiens, UniProt Q9Y6M4). The conditions noted are these: kinase CK1γ3; 1 µmol/L single concentration; read-out: %-inhibition at 1 µmol/L, CK1γ3.
Test [19] relates to panel of 255 wild-type kinases. The conditions noted are these: for %-inhibition at 1 µmol/L, FYN [isoform b]: kinase FYN [isoform b]; for %-inhibition at 1 µmol/L, FYN [isoform b] / %-inhibition at 1 µmol/L, LYNb / %-inhibition at 1 µmol/L, PKCβ2 / %-inhibition at 1 µmol/L, SRM: 1 µmol/L single concentration; for %-inhibition at 1 µmol/L, LYNb: kinase LYNb; for %-inhibition at 1 µmol/L, PKCβ2: kinase PKCβ2; for %-inhibition at 1 µmol/L, SRM: kinase SRM; for number of the 255 profiled kinases inhibited by more than 50%: 1 µmol/L inhibitor.

Regarding `CCN1C(=O)N(c2c(F)c(OC)cc(OC)c2F)Cc2cnc3[nH]c(CN4CCOCC4)cc3c21` [pemigatinib], the inhibition at 1 µM is 3.7% in test [1]; 4.7% in test [2]; 2.67% in [3]; 69% in [4]; -3% in [5]; 5% in test [6]. Further, the inhibition at 1 µM in test [7] was -8.52%; in test [8], 56%; in [9], -1.6%; in [10], 6.37%; in test [11], -4.25%; in test [12], 2%. The inhibition at 1 µM was -3.62% in test [13]; 6% in [14]; -5% in [15]; 8% in [16]; -2.6% in test [17]; -1.18% in [18]. For the same compound, the “%-inhibition at 1 µmol/L, FYN [isoform b]” value (from here on “%-inhibition … [isoform b]”) in test [19] was determined as 14%. For the same compound, the “%-inhibition at 1 µmol/L, LYNb” value in test [19] is 64%. Further, the “%-inhibition at 1 µmol/L, PKCβ2” value in [19] was -1.57%. Moreover, the “%-inhibition at 1 µmol/L, SRM” value in [19] is listed as -3.44%.
In the case of `FC(F)(F)c1ccc(CNc2ccc(Cc3c[nH]c4ncc(Cl)cc34)cn2)cn1` [pexidartinib], the inhibition at 1 µM in test [1] was determined as 10%; in test [2], 25%; in [3], 0.371%; in test [4] it was 83%; in test [5], 21%; in test [6], 0.77%. The inhibition at 1 µM in test [7] is 2.66%; in [8] it was 12%; in test [9], -3.53%; in test [10] it was 3.48%; in test [11], -9%; in test [12], 9%. The inhibition at 1 µM in [13] was 2%; in test [14] it was 0.844%; in test [15] it was 6%; in test [16], 12%; in [17] it was -0.796%; in [18], -0.557%. Further, the “%-inhibition … [isoform b]” value in test [19] is 1.3%. Moreover, in [19], the “%-inhibition at 1 µmol/L, LYNb” value amounted to 19%. Also, in [19], the “%-inhibition at 1 µmol/L, PKCβ2” value amounted to 3.47%. For the same compound, in test [19], the “%-inhibition at 1 µmol/L, SRM” value worked out at 0.409%.
With `CO[C@]1(C(=O)N[C@@H](C)c2ccc(-n3cc(F)cn3)nc2)CC[C@H](c2nc(C)cc(Nc3cc(C)[nH]n3)n2)CC1` [pralsetinib], the inhibition at 1 µM in [1] was 10%; in test [2], 13%; in test [3], 94%; in [4] it was 99%; in [5], 75%; in [6], -3.21%. Also, the inhibition at 1 µM in test [7] is -3%; in test [8], -8%; in [9] it was 0.23%; in test [10], 9.51%; in [11], 53%; in [12], 59%. Further, the inhibition at 1 µM in [13] is 9%; in test [14], -3.42%; in test [15], -2.38%; in [16], 4.54%; in [17], -0.0459%; in [18], 0.449%. In addition, the “number of the 255 profiled kinases inhibited by more than 50%” value in test [19] stood at 71. The “%-inhibition … [isoform b]” value in test [19] is 30%. The “%-inhibition at 1 µmol/L, LYNb” value in [19] was determined as 89%. Further, the “%-inhibition at 1 µmol/L, PKCβ2” value in test [19] is listed as -1.78%. In addition, the “%-inhibition at 1 µmol/L, SRM” value in [19] is recorded as 13%.
On to `COc1ccc(CN2C3CC2CN(c2ccc(-c4cc(OCC(C)(C)O)cn5ncc(C#N)c45)cn2)C3)cn1` [selpercatinib], for which the inhibition at 1 µM stood at 24% in test [1]; 40% in test [2]; 48% in [3]; 96% in test [4]; 35% in [5]; 4.42% in test [6]. Also, the inhibition at 1 µM is -7.44% in test [7]; 45% in [8]; -4% in test [9]; -2.3% in [10]; 26% in test [11]; 79% in [12]. Also, the inhibition at 1 µM was -5.31% in test [13]; -1.85% in test [14]; -2.29% in test [15]; 45% in test [16]; 0.41% in [17]; 12% in test [18]. The “number of the 255 profiled kinases inhibited by more than 50%” value in test [19] amounted to 46. The “%-inhibition … [isoform b]” value in test [19] is reported as 10%. Moreover, in test [19], the “%-inhibition at 1 µmol/L, LYNb” value is 52%. Also, in test [19], the “%-inhibition at 1 µmol/L, PKCβ2” value is given as -1.06%. In addition, the “%-inhibition at 1 µmol/L, SRM” value in test [19] is -1.55%.
As for `Cn1cnc2c(F)c(Nc3ccc(Br)cc3Cl)c(C(=O)NOCCO)cc21` [selumetinib], the inhibition at 1 µM in test [1] was 3%; in test [2] it was 5%; in [3], -2.83%; in test [4], 25%; in test [5] it was 1.22%; in [6], -3.21%. Besides, the inhibition at 1 µM in test [7] is -4.67%; in test [8], -6%; in [9], -4.4%; in [10], 7%; in test [11] it was 2.59%; in test [12], 4.28%. For the same compound, the inhibition at 1 µM was 7% in [13]; -1.71% in test [14]; -2% in test [15]; 0.947% in test [16]; -1.5% in test [17]; -1% in test [18]. In addition, the “%-inhibition … [isoform b]” value in [19] is recorded as -1.85%. Further, the “%-inhibition at 1 µmol/L, LYNb” value in test [19] is 7%. For the same compound, the “%-inhibition at 1 µmol/L, PKCβ2” value in test [19] is -2%. In addition, in test [19], the “%-inhibition at 1 µmol/L, SRM” value is given as -1.41%.

Values taken from publication PMC9516332 (Frontiers in Oncology, 2022).
